Reference: patent publication EP1171440B1, “SUBSTITUTED-3-CYANO-[1.7],[1.5], AND [1.8]-NAPHTHYRIDINE INHIBITORS OF TYROSINE KINASES” (Wyeth Holdings Corporation, priority 1999, dated 2000)
pIC50: −log10 of the molar value. In brackets after ≈: the same amount, converted by molar mass. Where two headings read alike, the source gives them in different places.

How the values were obtained:
A2780DDP = test: Inhibition of Cancer Cell Growth as Measured by Cell Number (Sulforhodamine B); assay type: cell-based, Human; settings: 48 hours exposure
Experimental: (§1) After 48 hours exposure to test compounds, cells were fixed with trichloroacetic acid, and stained with Sulforhodamine B. After washing with trichloroacetic acid, bound dye was solubilized in 10 mM Tris base and optical density was determined using a plate reader. Under conditions of the assay the optical density is proportional to the number of cells in the well. […] The test procedure is described in details by Philip Skehan et. al, J.Natl. Canc. […] The Her2Neu cell line is a 3T3 line that has bbeen transfected with Her2 receptor kinase.

A2780S = test: as above; assay type: cell-based, Human; settings: 48 hours exposure
Experimental: as §1

A431 = test: as above; assay type: cell-based, Human; settings: 48 hours exposure
Experimental: as §1

LOX = test: as above; assay type: cell-based, Human; settings: 48 hours exposure
Experimental: as §1

MDA435 = test: as above; assay type: cell-based, Human; settings: 48 hours exposure
Experimental: as §1

SKBR3 = test: as above; assay type: cell-based, Human
Experimental: as §1

SW620 = test: as above; assay type: cell-based, Human
Experimental: as §1

[1] = biological target: T1, EGF-R Kinase (recombinant enzyme) (Homo sapiens, UniProt P00533); test: Inhibition of Epidermal Growth Factor Receptor Kinase (EGF-R) using recombinant enzyme, RR-SRC peptide phosphorylation with 33P-ATP; assay type: biochemical
T1 construct: containing the EGFR cDNA encoding amino acids 645 - 1186 preceded by Met-Ala-(His)6; made in house; host or cells: Sf9 insect cells infected with recombinant baculovirus vHcEGFR52
Experimental: Representative test compounds were evaluated for their ability to inhibit the phosphorylation of the tyrosine residue of a peptide substrate catalyzed by the enzyme epidermal growth factor receptor kinase. […] The enzyme used in this assay is the His-tagged cytoplasmic domain of EGFR. A recombinant baculovirus (vHcEGFR52) was constructed containing the EGFR cDNA encoding amino acids 645 - 1186 preceded by Met-Ala-(His)6 . Sf9 cells in 100 mm plates were infected at an moi of 10 pfu/cell and cells were harvested 48 h post infection. A cytoplasmic extract was prepared using 1% Triton X-100 and applied to Ni-NTA column. After washing the column with 20 mM imidazole, HcEGFR was eluted with 250 mM imidazole (in 50 mM Na2HPO4, pH 8.0, 300 mM NaCl). Fractions collected were dialyzed against 10 mM HEPES, pH 7.0, 50 mM NaCl, 10% glycerol, 1ug/mL antipain and leupeptin and 0.1 mM Pefabloc SC. The protein was frozen in dry ice/methanol and stored -70° C.
Test compounds were made into 10 mg/mL stock solutions in 100% dimethylsulfoxide (DMSO). Prior to experiment, stock solutions were diluted to 500 uM with 100% DMSO and then serially diluted to the desired concentration with HEPES buffer (30 mM HEPES pH 7.4).
For the enzyme reaction, 10 uL of each inhibitor (at various concentrations) were added to each well of a 96-well plate. To this was added 3 uL of enzyme (1:10 dilution in 10mM HEPES, pH 7.4 for final conc. of 1:120). This was allowed to sit for 10 min on ice and was followed by the addition of 5 ul peptide (80 uM final conc.), 10ul of 4X Buffer (Table A), 0.25 uL ^33P-ATP and 12 uL H2O. The reaction was allowed to run for 90 min at room temperature and was followed by spotting the entire volume on to precut P81 filter papers. The filter discs were washed 2X with 0.5% phosphoric acid and radioactivity was measured using a liquid scintillation counter. Table A
The IC50 is the concentration of test compound needed to reduce the total amount of phosphorylated substrate by 50%. The % inhibition of the test compound was determined for at least three different concentrations and the IC50 value was evaluated from the dose response curve. […] CPM(control) is in units of counts per minute and was a number expressing the amount of radiolabeled ATP (γ-^33P) incorporated into the RR-SRC peptide substrate by the enzyme after 90 minutes at room temperature in the absence of test compound as measured by liquid scintillation counting. The CPM values were corrected for the background counts produced by ATP in the absence of the enzymatic reaction. Where it was possible to determine an IC50 value, this is reported in TABLE 1 otherwise the % inhibition at 0.5 µM concentration of test compound is shown in TABLE 1.

[2] = biological target: Epithelial Cell Kinase (ECK) (Homo sapiens, UniProt P29317); test: Inhibition of Epithelial Cell Kinase (ECK), nonradioactive peptide phosphorylation plate assay; assay type: biochemical; settings: pH 7.2; multiple entries = tested multiple times
Experimental: In this standard pharmacological test procedure, a biotinylated peptide substrate is first immobilized on neutravidin-coated microtiter plates. The test drug, the Epithelial Cell Kinase (ECK), Mg^++, sodium vanadate (a protein tyrosine phosphatase inhibitor), and an appropriate buffer to maintain pH (7.2) are then added to the immobilized substrate-containing microtiter wells. ATP is then added to initiate phosphorylation. After incubation, the assay plates are washed with a suitable buffer leaving behind phosphorylated peptide which is exposed to horse radish peroxidase (HRP)-conjugated anti-phosphotyrosine monoclonal antibody. The antibody-treated plates are washed again and the HRP activity in individual wells is quantified as a reflection of degree of substrate phosphorylation. This nonradioactive format was used to identify inhibitors of ECK tyrosine kinase activity where the IC50 is the concentration of drug that inhibits substrate phosphorylation by 50%. Multiple entries for a given compound indication it was tested multiple times.

[3] = biological target: Mitogen Activated Protein Kinase (Mek-Erk) (Homo sapiens, UniProt P28482+Q02750); test: Mitogen Activated Protein Kinase (MAPK) coupled MEK 1 / ERK2 assay; assay type: biochemical; settings: separate entries = evaluated more than one time
Experimental: To evaluate inhibitors of the MAP (mitogen activated protein) kinase a two component coupled standard pharmacological test procedure, which measures phosphorylation of a serine/threonine residue in an appropriate sequence in the substrate in the presence and absence of a putative inhibitor, was used. Recombinant human MEK 1 (MAPKK) was first used to activate recombinant human ERK2 (MAPK) and the activated MAPK (ERK) was incubated with substrate (MBP peptide or MYC peptide) in the presence of ATP, Mg^+2 and radiolabeled ^33P ATP. The phosphorylated peptide was captured on a P 81 phosphocellulose filter (paper filter or embedded in microtiter plate) washed and counted by scintillation methods.
The peptide substrates used in the assay are MBP, peptide substrate ([…]), or synthetic Myc substrate, ([…]•5 TFA. The recombinant enzymes used were prepared as GST fusion proteins of human ERK 2 and human MEK 1. Inhibitor samples were prepared as 10X stocks in 10% DMSO and an appropriate aliquot was used to deliver either 10 ug/ml for a single point screening dose or 100, 10, 1, and 0.1 uM final concentration for a dose response curve. Final DMSO concentrations were less than or equal to 1%.
The reaction was run as follows in 50 mM Tris kinase buffer, pH 7.4 in a reaction volume of 50 ul. The appropriate volume of kinase buffer and inhibitor sample was added to the tube. Appropriate dilution of enzyme was delivered to give 2-5 ug recombinant MAPK (Erk ) per tube. The inhibitor was incubated with MAPK (Erk) for 30 min at 0 deg. C. Recombinant Mek (MAPKK) ( 0.5-2.5 ug) or fully activated Mek (0.05-0.1 units) was added to activate the Erk and incubated for 30 min at 30° C. Then substrate and gamma ^33P ATP was were added to give a final concentration of 0.5- 1 mM MBPP or 250-500 uM Myc; 0.2-0.5 uCi gamma ^33P ATP/tube; 50 µM ATP final concentration. Samples were incubated at 30°C for 30 minutes and the reaction was stopped by adding 25 µl of ice cold 10 %TCA. After samples were chilled on ice for 30 min, 20 µl of sample was transferred onto P 81 phosphocellulose filter paper or appropriate MTP with embedded P 81 filter. Filter papers or MTP were washed 2 times with a large volume of 1% acetic acid, then 2 times with water. The filters or MTP were briefly air dried before addition of scintillant and samples were counted in the appropriate scintillation counter set up for reading ^33P isotope. Samples included a positive control (activated enzyme plus substrate); a no enzyme control; a no substrate control; samples with different concentrations of putative inhibitor; and samples with reference inhibitors (other active compounds or non-specific inhibitors such as staurosporine or K252 B).
The raw data was captured as cpm. Sample replicates were averaged and corrected for background count. Mean cpm data was tabulated by group and % inhibition by a test compound was calculated as (corrected cpm control- corrected. cpm sample/control) X 100 = % inhibition. If several concentrations of inhibitor were tested, IC50 values (the concentration which gives 50% inhibition) were determined graphically from the dose response curve for % inhibition or by an appropriate computer program. The results obtained for representative compounds of this invention are listed in TABLE 3 where there may be separate entries for the same compound; this is an indication that the compound was evaluated more than one time.

3T3 = test: Inhibition of Cancer Cell Growth as Measured by Cell Number (Sulforhodamine B); assay type: cell-based; settings: 48 hours exposure
Experimental: (§2) Human tumor cell lines were plated in 96-well plates (250 µl/well, 1-6 x 10^4 cells/ml) in RPMI 1640 medium, containing 5% FBS (Fetal Bovine Serum). […] After 48 hours exposure to test compounds, cells were fixed with trichloroacetic acid, and stained with Sulforhodamine B. After washing with trichloroacetic acid, bound dye was solubilized in 10 mM Tris base and optical density was determined using a plate reader. Under conditions of the assay the optical density is proportional to the number of cells in the well. IC50s (concentrations causing 50% inhibition of cell growth) were determined from the growth inhibition plots. The test procedure is described in details by Philip Skehan et. al, J.Natl. Canc. Inst., 82, 1107-1112 (1990). […] Information about some of the cell lines used in these test procedures is available from the American […]: Cell Lines and Hybridomas, 1994 Reference Guide, 8th Edition. The Her2Neu cell line is a 3T3 line that has bbeen transfected with Her2 receptor kinase.

MCF7 = test: as above; assay type: cell-based; settings: Homo sapiens, 48 hours exposure
Experimental: as §2

[4] = recombinant His-tagged cytoplasmic domain of EGFR, RR-SRC peptide, 90 min at room temperature, read-out: IC50
[5] = 0.5 µM concentration of test compound, read-out: % Inhibition @ 0.5
[6] = Homo sapiens, A-431, 48 h, read-out: IC50
[7] = Homo sapiens, MDA435, 48 h, read-out: IC50
[8] = Homo sapiens, SK-BR-3, 48 hours exposure, read-out: IC50
[9] = Homo sapiens, SW-620, 48 hours exposure, read-out: IC50
[10] = Homo sapiens, 48 h, read-out: IC50

Mitogen Activated Protein Kinase (Mek-Erk), sequence (P28482 2-360): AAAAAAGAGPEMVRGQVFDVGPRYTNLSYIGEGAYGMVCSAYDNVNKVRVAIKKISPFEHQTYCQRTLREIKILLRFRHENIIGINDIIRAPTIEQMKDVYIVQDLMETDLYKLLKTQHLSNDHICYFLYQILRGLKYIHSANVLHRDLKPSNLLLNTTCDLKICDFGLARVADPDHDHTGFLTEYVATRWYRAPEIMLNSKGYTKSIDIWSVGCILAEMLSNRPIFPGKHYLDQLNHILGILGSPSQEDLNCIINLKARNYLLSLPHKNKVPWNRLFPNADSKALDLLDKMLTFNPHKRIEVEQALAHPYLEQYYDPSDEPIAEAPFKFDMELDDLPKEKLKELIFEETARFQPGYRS
Mitogen Activated Protein Kinase (Mek-Erk), sequence (Q02750 whole entry): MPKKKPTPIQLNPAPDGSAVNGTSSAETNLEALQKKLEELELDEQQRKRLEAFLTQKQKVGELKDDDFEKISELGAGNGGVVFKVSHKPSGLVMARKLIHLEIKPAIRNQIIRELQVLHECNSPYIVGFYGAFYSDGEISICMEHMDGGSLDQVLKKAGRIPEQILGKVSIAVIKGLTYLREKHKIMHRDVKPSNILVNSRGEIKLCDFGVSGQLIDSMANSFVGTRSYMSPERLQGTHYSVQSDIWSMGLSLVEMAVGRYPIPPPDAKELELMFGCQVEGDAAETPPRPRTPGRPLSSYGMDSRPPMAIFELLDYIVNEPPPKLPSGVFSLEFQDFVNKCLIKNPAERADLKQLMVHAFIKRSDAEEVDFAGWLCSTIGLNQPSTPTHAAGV
Epithelial Cell Kinase (ECK), sequence (P29317 24-976, species assumed): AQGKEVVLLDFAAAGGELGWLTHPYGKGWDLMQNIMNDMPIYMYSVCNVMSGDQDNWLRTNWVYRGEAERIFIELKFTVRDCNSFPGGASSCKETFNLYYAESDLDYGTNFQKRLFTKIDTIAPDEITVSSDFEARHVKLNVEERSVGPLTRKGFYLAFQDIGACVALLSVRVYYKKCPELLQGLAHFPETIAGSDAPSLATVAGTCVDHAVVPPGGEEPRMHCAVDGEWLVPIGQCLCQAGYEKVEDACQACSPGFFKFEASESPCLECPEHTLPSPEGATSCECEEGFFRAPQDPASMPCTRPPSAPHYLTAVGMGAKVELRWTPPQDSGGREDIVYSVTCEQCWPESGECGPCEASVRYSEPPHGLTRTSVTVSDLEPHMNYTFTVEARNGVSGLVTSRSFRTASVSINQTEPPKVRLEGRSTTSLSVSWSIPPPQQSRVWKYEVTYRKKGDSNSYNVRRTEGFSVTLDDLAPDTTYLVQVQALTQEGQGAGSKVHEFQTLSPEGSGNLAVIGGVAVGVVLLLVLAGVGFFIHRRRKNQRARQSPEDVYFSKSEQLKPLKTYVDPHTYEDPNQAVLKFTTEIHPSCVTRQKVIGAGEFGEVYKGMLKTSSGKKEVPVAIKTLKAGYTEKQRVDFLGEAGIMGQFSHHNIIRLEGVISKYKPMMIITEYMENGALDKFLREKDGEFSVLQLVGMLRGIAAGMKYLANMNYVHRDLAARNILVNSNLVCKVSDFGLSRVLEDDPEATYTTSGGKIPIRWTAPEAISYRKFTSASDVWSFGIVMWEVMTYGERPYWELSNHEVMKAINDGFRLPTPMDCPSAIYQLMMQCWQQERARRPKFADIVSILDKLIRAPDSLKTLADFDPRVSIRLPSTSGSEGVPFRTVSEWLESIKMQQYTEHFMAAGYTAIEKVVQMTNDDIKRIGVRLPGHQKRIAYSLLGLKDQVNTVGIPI
T1 sequence (P00533 669-1210): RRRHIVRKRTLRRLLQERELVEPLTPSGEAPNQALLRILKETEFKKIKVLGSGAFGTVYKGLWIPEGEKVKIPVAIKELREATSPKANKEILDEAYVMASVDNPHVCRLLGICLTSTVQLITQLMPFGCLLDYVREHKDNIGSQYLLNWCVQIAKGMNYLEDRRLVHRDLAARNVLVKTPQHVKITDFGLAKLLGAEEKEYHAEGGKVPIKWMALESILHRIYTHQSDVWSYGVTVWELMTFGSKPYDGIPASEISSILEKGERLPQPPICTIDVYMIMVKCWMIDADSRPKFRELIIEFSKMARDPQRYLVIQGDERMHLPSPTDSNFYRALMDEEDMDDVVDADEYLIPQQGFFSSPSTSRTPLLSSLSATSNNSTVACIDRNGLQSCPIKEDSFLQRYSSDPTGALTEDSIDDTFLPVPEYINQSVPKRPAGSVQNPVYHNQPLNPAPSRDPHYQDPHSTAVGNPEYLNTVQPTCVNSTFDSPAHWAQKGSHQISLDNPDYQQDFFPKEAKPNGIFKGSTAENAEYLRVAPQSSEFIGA

| Molecule | pIC50 [1, 4] | pIC50 [2] | pIC50 [3] | IC50 (A431; [6]) [µg/mL] | IC50 (SKBR3; [8]) [µg/mL] | IC50 (SW620; [9]) [µg/mL] | other results |
| --- | --- | --- | --- | --- | --- | --- | --- |
| 1-[4-(3-Bromo-phenylamino)-3-cyano-[1.7]naphthyridin-6-yl]-4-dimethylamino- pyridinium fluoride [Example 65] |  |  |  |  |  |  | IC50 (A2780DDP): 52 µg/mL; IC50 (A2780S): 31 µg/mL; IC50 (A431): 59 µg/mL; IC50 (LOX): 56 µg/mL; IC50 (MDA435): 47 µg/mL; IC50 (SKBR3; 48 hours exposure): 41 µg/mL; IC50 (SW620; 48 hours exposure): 42 µg/mL |
| CC#CC(=O)Nc1cnc2ncc(C#N)c(Nc3cccc(Br)c3)c2c1 [Example 24, But-2-ynoic acid [5-(3-bromo-phenylamino)-6-cyano-[1.8]-naphthyridin-3-yl]-amide] | 7.00 | 7.52 | < 4.00 |  |  |  |  |
| Cc1ccc(Nc2c(C#N)cnc3ccc(OCCCN4CCOCC4)nc23)cc1O [Example 43, 4-(3-Hydroxy-4-methyl-phenylamino)-6-(3-morpholin-4-yl-propoxy)-[1.5]naphthyridine-3-carbonitrile] | 6.00 | < 5.64 | < 4.00 |  |  |  | inhibition at 0.5 µM [1, 5]: 37.1% |
| N#Cc1cnc2ccc(OCCCN3CCOCC3)nc2c1Nc1cccc(Br)c1 [Example 44, 4-(3-Bromo-phenylamino)-6-(3-morpholin-4-yl-propoxy)-[1.5]naphthyridine-3-carbonitrile] | 6.00 | < 5.68 | < 4.00 |  |  |  | inhibition at 0.5 µM [1, 5]: 25.4% |
| CN(C)CC=CC(=O)Nc1cc2c(Nc3cccc(Br)c3)c(C#N)cnc2cn1 [Example 62, 4-Dimethylamino-but-2-enoic acid, [4-(3-bromo-phenylamino)-3-cyano-[1.7]naphthyridin-6-yl]-amide] |  |  |  | 0.088 (≈ 0.195 µM) | 0.0357 (≈ 0.079 µM) | 0.356 (≈ 0.789 µM) | pIC50 [1]: 8.30; inhibition at 0.5 µM ([1]; read-out: % Inhibition @ 0.5 (µM)): 97.4%; IC50 (MDA435; [7]): 0.464 µg/mL (≈ 1.03 µM); IC50 (3T3): 0.2716 µg/mL (≈ 0.602 µM); IC50 (3T3; Mus musculus, NIH3T3, 48 h, read-out: IC50): 0.373 µg/mL (≈ 0.826 µM) |
| N#Cc1cnc2cnc(NCCN3CCOCC3)cc2c1Nc1cccc(Br)c1 [Example 63, 4-(3-Bromo-phenylamino)-6-(2-morpholino-4-yl-ethylamino)-[1.7]naphthyridine-3-carbonitrile] | 6.00 |  |  | 0.5 (≈ 1.1 µM) | 0.4 (≈ 0.882 µM) | 41 (≈ 90.4 µM) | IC50 (A2780DDP; [10]): 0.8 µg/mL (≈ 1.76 µM); IC50 (A2780S; [10]): 0.5 µg/mL (≈ 1.1 µM); IC50 (LOX; Homo sapiens, read-out: IC50): 57 µg/mL (≈ 126 µM); IC50 (MDA435; [7]): 49 µg/mL (≈ 108 µM) |
| CNc1cc2c(Nc3cccc(Br)c3)c(C#N)cnc2cn1 [Example 64, 4-(3-Bromo-phenylamino)-6-methylamino-[1.7]naphthyridine-3-carbonitrile] | 8.22 |  |  | 0.31 (≈ 0.875 µM) | 1.88 (≈ 5.3 µM) | 4.62 (≈ 13 µM) | IC50 (A431): 0.209 µg/mL (≈ 0.59 µM); IC50 (LOX; Homo sapiens, read-out: IC50): 3.6 µg/mL (≈ 10.2 µM); IC50 (MCF7): 3.87 µg/mL (≈ 10.9 µM) |
| N#Cc1cnc2cnc(F)cc2c1Nc1ccc(F)c(Cl)c1 [Example 69, 4-(3-Chloro-4-fluoro-phenylamino)-6-fluoro-[1.7]naphthyridine-3-carbonitrile] |  | < 5.51 |  |  |  |  |  |
